Test results published in PubChem BioAssay AID2060335 (Molecular Pharmacology Branch, DTP, NCI, 2025).
Where “and” joins values, the source holds several entries; their conditions need not be identical. Identical values can stand only once.

Test system: DU-145 multicell spheroids with HUVEC/MSC, viability
Experiment: Anticancer human tumor DU-145 cell line growth inhibition [IpAb];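 further: spheroids exposed to agents for seven days before measurement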;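 on viability, T/C: percent of DMSO vehicle control viability so 100% = untreated level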
Details: for viability, T/C: stronger effect = lower value
Method in brief: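 Multi-cell spheroids of 60% tumour cells, 25% HUVEC and 15% MSC in ultra-low-attachment U-bottom wells, treated with agents combined with ipatasertib or abemaciclib. Half-log ranges top out near clinical Cmax, or 10 microM when Cmax is unknown.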

[1] = curve of first compound, second compound 0.01 µM
[2] = curve of first compound, second compound 0.0316 µM
[3] = curve of first compound, second compound 0.1 µM
[4] = curve of first compound, second compound 0.316 µM
[5] = curve of first compound, second compound 1 µM
[6] = second compound 0.01 µM, first compound 0.0316 µM
[7] = second compound 0.01 µM, first compound 0.1 µM
[8] = second compound 0.01 µM, first compound 0.316 µM
[9] = second compound 0.01 µM, first compound 1 µM
[10] = second compound 0.0316 µM, first compound 0.0316 µM
[11] = second compound 0.0316 µM, first compound 0.1 µM
[12] = second compound 0.0316 µM, first compound 0.316 µM
[13] = second compound 0.0316 µM, first compound 1 µM
[14] = second compound 0.1 µM, first compound 0.0316 µM
[15] = second compound 0.1 µM, first compound 0.1 µM
[16] = second compound 0.1 µM, first compound 0.316 µM
[17] = second compound 0.1 µM, first compound 1 µM
[18] = second compound 0.1 µM, first compound 3.16 µM
[19] = second compound 0.1 µM, first compound 10 µM
[20] = second compound 0.316 µM, first compound 0.0316 µM
[21] = second compound 0.316 µM, first compound 0.1 µM
[22] = second compound 0.316 µM, first compound 0.316 µM
[23] = second compound 0.316 µM, first compound 1 µM
[24] = second compound 0.316 µM, first compound 3.16 µM
[25] = second compound 0.316 µM, first compound 10 µM
[26] = second compound 1 µM, first compound 0.0316 µM
[27] = second compound 1 µM, first compound 0.1 µM
[28] = second compound 1 µM, first compound 0.316 µM
[29] = second compound 1 µM, first compound 1 µM
[30] = second compound 1 µM, first compound 3.16 µM
[31] = second compound 1 µM, first compound 10 µM
[32] = second compound 0.01 µM, first compound 0.00316 µM
[33] = second compound 0.01 µM, first compound 0.01 µM
[34] = second compound 0.0316 µM, first compound 0.00316 µM
[35] = second compound 0.0316 µM, first compound 0.01 µM
[36] = second compound 0.1 µM, first compound 0.00316 µM
[37] = second compound 0.1 µM, first compound 0.01 µM
[38] = second compound 0.316 µM, first compound 0.00316 µM
[39] = second compound 0.316 µM, first compound 0.01 µM
[40] = second compound 1 µM, first compound 0.00316 µM
[41] = second compound 1 µM, first compound 0.01 µM

Compound: C=CCn1c(=O)c2cnc(Nc3ccc(N4CCN(C)CC4)cc3)nc2n1-c1cccc(C(C)(C)O)n1 + CCN1CCN(Cc2ccc(Nc3ncc(F)c(-c4cc(F)c5nc(C)n(C(C)C)c5c4)n3)nc2)CC1
- IC50 [1]: 140 nM
- IC50 [2]: 88.3 nM
- IC50 [3]: 64.3 nM
- IC50 [4]: 55.9 nM
- IC50 [5]: 96.6 nM
- viability, T/C [6]: 85.5%
- viability, T/C [7]: 61.3%
- viability, T/C [8]: 21.9%
- viability, T/C [9]: 17%
- viability, T/C (second compound 0.01 µM, first compound 3.16 µM): 10.1%
- viability, T/C (second compound 0.01 µM, first compound 10 µM): 9.83%
- viability, T/C [10]: 75.3%
- viability, T/C [11]: 47.6%
- viability, T/C [12]: 21.7%
- viability, T/C [13]: 16.9%
- viability, T/C (second compound 0.0316 µM, first compound 3.16 µM): 10.7%
- viability, T/C (second compound 0.0316 µM, first compound 10 µM): 8.6%
- viability, T/C [14]: 69.7%
- viability, T/C [15]: 37%
- viability, T/C [16]: 21.9%
- viability, T/C [17]: 16.1%
- viability, T/C [18]: 9.64%
- viability, T/C [19]: 9.46%
- viability, T/C [20]: 58.7%
- viability, T/C [21]: 40.9%
- viability, T/C [22]: 25.2%
- viability, T/C [23]: 14.9%
- viability, T/C [24]: 9.9%
- viability, T/C [25]: 10.9%
- viability, T/C [26]: 57.3%
- viability, T/C [27]: 50.5%
- viability, T/C [28]: 27.1%
- viability, T/C [29]: 14.2%
- viability, T/C [30]: 7.82%
- viability, T/C [31]: 8.53%

Compound: COc1c(OCCCN2CCOCC2)ccc2c3n(c(=NC(=O)c4cnc(N)nc4)nc12)CCN3 + CCN1CCN(Cc2ccc(Nc3ncc(F)c(-c4cc(F)c5nc(C)n(C(C)C)c5c4)n3)nc2)CC1
- IC50 [1]: 7.99 nM
- IC50 [2]: 6.14 nM
- IC50 [3]: 4.88 nM
- IC50 [4]: 4.36 nM
- IC50 [5]: 4.94 nM
- viability, T/C [32]: 79.2%
- viability, T/C [33]: 41.3%
- viability, T/C [6]: 28%
- viability, T/C [7]: 15.2%
- viability, T/C [8]: 9.78%
- viability, T/C [9]: 11.9%
- viability, T/C [34]: 62.9%
- viability, T/C [35]: 39.9%
- viability, T/C [10]: 25.3%
- viability, T/C [11]: 13.5%
- viability, T/C [12]: 9.95%
- viability, T/C [13]: 11.3%
- viability, T/C [36]: 57.1%
- viability, T/C [37]: 38%
- viability, T/C [14]: 23.4%
- viability, T/C [15]: 14.2%
- viability, T/C [16]: 10.9%
- viability, T/C [17]: 11.5%
- viability, T/C [38]: 53.6%
- viability, T/C [39]: 40.4%
- viability, T/C [20]: 29.7%
- viability, T/C [21]: 17.7%
- viability, T/C [22]: 13.5%
- viability, T/C [23]: 14%
- viability, T/C [40]: 54.4%
- viability, T/C [41]: 42.8%
- viability, T/C [26]: 32.9%
- viability, T/C [27]: 25.7%
- viability, T/C [28]: 19.7%
- viability, T/C [29]: 20.8%

Compound: Cn1nccc1Nc1nccc(-c2ccn(C(CO)c3ccc(Cl)c(F)c3)c(=O)c2)n1 (configuration not stated) + CC(C)NCC(C(=O)N1CCN(c2ncnc3c2C(C)CC3O)CC1)c1ccc(Cl)cc1
- IC50 [3]: > 10000 nM
- IC50 [4]: < 31.6 nM
- IC50 [5]: < 31.6 nM
- IC50 (curve of first compound, second compound 3.16 µM): < 31.6 nM
- IC50 (curve of first compound, second compound 10 µM): < 31.6 nM
- viability, T/C [14]: 65.6%
- viability, T/C [15]: 57.1%
- viability, T/C [16]: 60%
- viability, T/C [17]: 76.8%
- viability, T/C [18]: 99%
- viability, T/C [19]: 66.2%
- viability, T/C [20]: 42.6%
- viability, T/C [21]: 36.2%
- viability, T/C [22]: 35.8%
- viability, T/C [23]: 45.7%
- viability, T/C [24]: 66.3%
- viability, T/C [25]: 60.3%
- viability, T/C [26]: 27.4%
- viability, T/C [27]: 24.6%
- viability, T/C [28]: 26.2%
- viability, T/C [29]: 30.7%
- viability, T/C [30]: 42.3%
- viability, T/C [31]: 47.6%
- viability, T/C (second compound 3.16 µM, first compound 0.0316 µM): 18.7%
- viability, T/C (second compound 3.16 µM, first compound 0.1 µM): 16.5%
- viability, T/C (second compound 3.16 µM, first compound 0.316 µM): 19.3%
- viability, T/C (second compound 3.16 µM, first compound 1 µM): 20.7%
- viability, T/C (second compound 3.16 µM, first compound 3.16 µM): 27.6%
- viability, T/C (second compound 3.16 µM, first compound 10 µM): 36.8%
- viability, T/C (second compound 10 µM, first compound 0.0316 µM): 13.4%
- viability, T/C (second compound 10 µM, first compound 0.1 µM): 11.6%
- viability, T/C (second compound 10 µM, first compound 0.316 µM): 11.7%
- viability, T/C (second compound 10 µM, first compound 1 µM): 14.3%
- viability, T/C (second compound 10 µM, first compound 3.16 µM): 21.7%
- viability, T/C (second compound 10 µM, first compound 10 µM): 24.6%

Compound: CC(C)n1nc(-c2ccc3oc(N)nc3c2)c2c(N)ncnc21 + CCN1CCN(Cc2ccc(Nc3ncc(F)c(-c4cc(F)c5nc(C)n(C(C)C)c5c4)n3)nc2)CC1
- IC50 [1]: 1.9 nM
- IC50 [2]: 1.49 nM
- IC50 [3]: 1.46 nM
- IC50 [4]: 1.84 nM
- IC50 [5]: 1.86 nM
- viability, T/C (second compound 0.01 µM, first compound 0.000316 µM): 97.3%
- viability, T/C (second compound 0.01 µM, first compound 0.001 µM): 64.2%
- viability, T/C [32]: 39.3%
- viability, T/C [33]: 21.2%
- viability, T/C [6]: 11.3%
- viability, T/C [7]: 9.72%
- viability, T/C (second compound 0.0316 µM, first compound 0.000316 µM): 82.2%
- viability, T/C (second compound 0.0316 µM, first compound 0.001 µM): 56%
- viability, T/C [34]: 38.5%
- viability, T/C [35]: 19.9%
- viability, T/C [10]: 11.7%
- viability, T/C [11]: 8.9%
- viability, T/C (second compound 0.1 µM, first compound 0.000316 µM): 76.9%
- viability, T/C (second compound 0.1 µM, first compound 0.001 µM): 56.2%
- viability, T/C [36]: 36.9%
- viability, T/C [37]: 23.9%
- viability, T/C [14]: 12.9%
- viability, T/C [15]: 9.08%
- viability, T/C (second compound 0.316 µM, first compound 0.000316 µM): 69.2%
- viability, T/C (second compound 0.316 µM, first compound 0.001 µM): 58.8%
- viability, T/C [38]: 40.9%
- viability, T/C [39]: 31.5%
- viability, T/C [20]: 16%
- viability, T/C [21]: 12.5%
- viability, T/C (second compound 1 µM, first compound 0.000316 µM): 60.3%
- viability, T/C (second compound 1 µM, first compound 0.001 µM): 56.5%
- viability, T/C [40]: 44.4%
- viability, T/C [41]: 33.8%
- viability, T/C [26]: 25.1%
- viability, T/C [27]: 20.3%

Compound: CC1(C)CCC(CN2CCN(c3ccc(C(=O)NS(=O)(=O)c4ccc(NCC5CCOCC5)c([N+](=O)[O-])c4)c(Oc4cnc5[nH]ccc5c4)c3)CC2)=C(c2ccc(Cl)cc2)C1
- viability, T/C (compound 0.0316 µM): 104%
- viability, T/C (compound 0.1 µM): 103% and 109%
- viability, T/C (compound 0.316 µM): 104% and 107%
- viability, T/C (compound 1 µM): 96.4% and 99.4%
- viability, T/C (compound 3.16 µM): 69.2% and 76%
- viability, T/C (compound 10 µM): 10.1% and 10.8%
- IC50 (curve of compound): 4530 nM and 4990 nM
